# Key:
# conscious male rat = experiment: Penile intracavernosal pressure in the conscious male rat (telemetry); assay type: in vivo
# Experimental: In addition to treating women with FSD, bombesin antagonists will be useful in treating male erectile dysfunction (MED. Both the non-selective BB1/2 antagonists (Compound 1; 10 mg/kg sc) and the selective BB I receptor antagonist (Compound 3; 15 mg/kg sc) is pro-erectile in a conscious rat model of penile erection (FIGS. 24 and 25). Erectile responses were recorded by measuring intracavemosal pressure using surgically implanted telemetric device. The specific details the surgical procedures, data acquisition and analysis can be found in detail in Bernabe 1999.
# Compound 1 and compound 3 were dissolved in 50% O-cyclodextrin in saline. They were administered at a dose of 15 mg/kg subcutaneously (sc). […] These increases equate to penile erection. Both Compounds 1 and 3 induced a number of erections in a similar manner to those observed with apomorphine or melanotan-II—both of which are clinically proven agents that are effective in the treatment of MED. Moreover the amplitude of the increases observed were similar to those observed with apomorphine or melanotan-II. The mechanism of action is thought to be similar to the effects on female genital flow ie CNS potentiation of the descending neuronal pathways that control penile erection.
# Sprague Dawley male rats = experiment: Sexual behaviour of sexually dysfunctional (fluoxetine-treated) male rats; assay type: in vivo, rat; conditions: fluoxetine 20 mg/kg i.p. 3 days (vs vehicle+vehicle); day 4 Compound (1) 15 mg/kg or yohimbine 2 mg/kg i.p. 1 h before test (vs fluoxetine+vehicle)
# Experimental: Sprague Dawley male rats (Charles River, UK) were kept, 4 rats per cage, in a reversed lighting regime (12:12 hours, lights off at 5.00 h), with free access to food and water. The rats were pre-selected by being presented with a receptive female at […], i.e. every third day (haying 2 clear days between presentations) until completing 6-7 trials of baseline determination. The animals showing consistently vigorous behaviour (ejaculatory latencies <300 s) were chosen for further experiments. Animals were treated for 3 consecutive days with either vehicle (water) or fluoxetine (20 mg/kg, i.p., in a 2 ml/kg dosing volume). On the fourth day, the animals treated with water received vehicle (veh+veh) and the animals treated with fluoxetine received one of the three following treatments: Compound (1) (15 mg/kg, dissolved in 50% 2-hydroxypropyl-β-cyclodextrin in saline), vehicle (cyclodextrine), or yohimbine (2 mg/kg dissolved in water). All treatments were administered i.p. in a 1 ml/kg volume, 1 h before tests.
# For all the sexual behaviour tests, the males were placed in an observation arena (50-60 cm diameter), starting 5 hours into the dark cycle and observed under red illumination. Three to 4 minutes after placing the male in the arena, a receptive female (ovariectomised, bearing a 7 mm Silastic implant of oestradiol benzoate) was introduced to the arena and the following parameters noted: Mount Latency: time (in seconds) taken between introduction of female and first mount. A maximum time of 15 minutes (900 seconds) was allowed, and the test terminated if no mounts were recorded within that time (FIG. 16), Ejaculation Latency: time (in seconds) taken from first intromission to ejaculation. A maximum time of 30 minutes (1800 seconds) was given, and the test terminated if ejaculation was not achieved in that time (FIG. 17), Percentage of males achieving ejaculation within 30 minutes was calculated (FIG. 18).
# A one-way ANOVA followed by Dunnett's t test was used to compare the fluoxetine+vehicle group and other groups for mount and ejaculatory latencies. Percentage of animals ejaculating was analysed using a Chi-square test followed by Fisher's test. (*: P<0.05, **: P<0.01, ***: P<0.001; n=15-19).
# [1] = system: ovariectomised female Sprague Dawley rats; experiment: Plasma sexual hormone levels (radioimmunoassay) in ovariectomised female rats; assay type: in vivo, rat
# Experimental: Ovariectomised adult female Sprague Dawley rats (180-200 g) were housed in groups of 6 in a reversed lighting system of 12 h light:dark (lights off 7.00-19.00 h). They were used for the experiments at least two weeks after ovariectomy. Forty eight hours before tests, the animals were primed with oestradiol benzoate (5 μg/0.1 ml in corn oil, s.c.). Progesterone (0.5 mg/0.1 ml, in corn oil, s.c.) was administered 4 h before blood collection, as a positive control. Compound (1) (3-10 mg/kg, i.p.) was administered in 50% 2-hydroxypropyl-β-cyclodextrin, 1 h prior to blood collection. Blood was collected from the trunk, after decapitation. It was immediately centrifuged (3500 r.p.m., 4° C., 5 min) and the plasmas frozen until assayed for hormonal content, using commercially available radioimmunoassay kits (^125I-labelled hormones) for oestradiol, progesterone, LH, FSH and prolactin.
# [2] = Compound (1) 3-10 mg/kg 1 h, progesterone 0.5 mg/0.1 ml s.c. 4 h before blood collection, vs vehicle
# [3] = Compound (1) 3-10 mg/kg, 1 h before blood collection
smiles,measurement,setting,value
"COc1ccc(C2(CNC(=O)[C@](C)(Cc3c[nH]c4ccccc34)NC(=O)Nc3ccc([N+](=O)[O-])cc3)CCCCC2)nc1 [Compound (1), (S) 3-(1H-Indol-3-yl)-N-[1-(5-methoxy-pyridin-2-yl)-cyclohexyl-methyl]-2-methyl-2-[3-(4-nitro-phenyl)-ureido]-propionamide]",penile erection (erectile response),"conscious male rat; Compound 1 10 mg/kg sc, Compound 3 15 mg/kg sc, conscious rat model",pro-erectile
same,intracavernosal pressure,"conscious male rat; one hour after 10 mg/kg sc Compound 1, 45 minutes after 15 mg/kg sc compound 3, conscious rat",significant increases in intracavernosal pressure
same,Ejaculation latency,Sprague Dawley male rats,significantly decreased
same,Mount latency,Sprague Dawley male rats,significantly decreased
same,percentage of animals ejaculating (within 30 minutes),Sprague Dawley male rats,increasing the percentage of animals ejaculating
same,LH plasma levels,[1]; [2],no effect
same,progesterone plasma levels,[1]; [2],no effect
same,FSH plasma levels,[1]; [3],no effect
same,oestradiol plasma levels,[1]; [3],no effect
same,prolactin plasma levels,[1]; [3],no effect

# From patent publication US20040087561A1, “Treatment of sexual dysfunction” (priority 2000, published 2004)
